The target in this assay is Cell division control protein 42 homolog (Homo sapiens, UniProt P60953). The experiment in a line: blockade of fluorescent GTP uptake by Cdc42 wt – biochemical, bead-based multiplex flow cytometry, oxadiazole series, SAR follow-up (AID 2037).
The mark [1] stands for this setting: inactive by the depositor's call.

Drawing on BindingDB's records for doi:10.7270/Q2NK3CFW (Nmmlsc, 2009), this text covers EC50 for 51 compounds.

Sequence of Cell division control protein 42 homolog (P60953 whole entry): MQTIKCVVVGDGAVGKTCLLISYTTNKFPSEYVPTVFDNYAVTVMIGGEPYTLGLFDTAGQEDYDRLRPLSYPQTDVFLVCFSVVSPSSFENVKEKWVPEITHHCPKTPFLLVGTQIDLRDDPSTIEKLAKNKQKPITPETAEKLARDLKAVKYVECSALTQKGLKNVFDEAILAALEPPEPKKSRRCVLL

A word on the EC50: it is the midpoint of the concentration-response curve. Low values mean an effect from little substance, high ones a need for much substance. In turn, `COc1cccc(-c2noc(CCC(=O)N3CCN(c4cc(C)ccc4C)CC3)n2)c1` registered a half-maximal effective concentration (EC50) of 2.77 µM.

`Cc1ccc(C)c(N2CCN(C(=O)CCc3nc(-c4ccccc4C)no3)CC2)c1` had an EC50 greater than 30 µM.

`COc1ccc(-c2noc(CCC(=O)N3CCN(c4cccc(Cl)c4)CC3)n2)cc1` gave an EC50 greater than 30 µM.

Compound `Cc1ccc(C)c(N2CCN(C(=O)CCc3nc(-c4ccccc4C(F)(F)F)no3)CC2)c1` yielded a half-maximal effective concentration (EC50) of 4.95 µM.

`COc1ccc(-c2noc(CCC(=O)N3CCN(c4ccccc4C)CC3)n2)cc1` returned a concentration giving a half-maximal response (EC50) of 1.71 µM.

In turn, `COc1ccc(-c2ccc(CCC(=O)N3CCN(c4cc(C)ccc4C)CC3)s2)cc1` had a concentration for a half-maximal effect (EC50) greater than 30 µM.

Take `COc1ccc(-c2noc(CCC(=O)N3CCN(c4cccc(C)c4C)CC3)n2)cc1` [1-[4-(2,3-dimethylphenyl)-1-piperazinyl]-3-[3-(4-methoxyphenyl)-1,2,4-oxadiazol-5-yl]-1-propanone]: the response under setting [1] was half-maximal at 1.15 µM (EC50).

With `COc1ccc(-c2noc(CCC(=O)N3CCN(c4cc(C)ccc4C)CC3)n2)cc1` [1-[4-(2,5-dimethylphenyl)-1-piperazinyl]-3-[3-(4-methoxyphenyl)-1,2,4-oxadiazol-5-yl]-1-propanone], the EC50 under setting [1] was determined as 2.74 µM.

As for `Cc1ccc(-c2noc(CCC(=O)N3CCN(c4cc(C)ccc4C)CC3)n2)cc1` [1-[4-(2,5-dimethylphenyl)-1-piperazinyl]-3-[3-(4-methylphenyl)-1,2,4-oxadiazol-5-yl]-1-propanone], the EC50 came to 4.37 µM.

On to `Cc1ccc(C)c(N2CCN(C(=O)CCc3nc(-c4ccc(C(F)(F)F)cc4)no3)CC2)c1` [1-[4-(2,5-dimethylphenyl)-1-piperazinyl]-3-[3-[4-(trifluoromethyl)phenyl]-1,2,4-oxadiazol-5-yl]-1-propanone], for which, under setting [1], the EC50 was found to be 3.21 µM.

As to `COc1ccc(-c2noc(CCCCC(=O)N3CCN(c4cc(C)ccc4C)CC3)n2)cc1` [1-[4-(2,5-dimethylphenyl)-1-piperazinyl]-5-[3-(4-methoxyphenyl)-1,2,4-oxadiazol-5-yl]-1-pentanone], the half-maximal effective concentration (EC50) is greater than 30 µM.

`COc1ccc(-c2noc(CC(=O)N3CCN(c4cc(C)ccc4C)CC3)n2)cc1` [1-[4-(2,5-dimethylphenyl)piperazin-1-yl]-2-[3-(4-methoxyphenyl)-1,2,4-oxadiazol-5-yl]ethanone] showed an EC50 greater than 30 µM.

The compound `Cc1cccc(-c2noc(CCC(=O)N3CCN(c4cc(C)ccc4C)CC3)n2)c1` [1-[4-(2,5-dimethylphenyl)piperazin-1-yl]-3-[3-(3-methylphenyl)-1,2,4-oxadiazol-5-yl]propan-1-one] came in with an EC50 of 1.02 µM.

In turn, `COc1ccc(-c2cc(CCC(=O)N3CCN(c4cc(C)ccc4C)CC3)on2)cc1` [1-[4-(2,5-dimethylphenyl)piperazin-1-yl]-3-[3-(4-methoxyphenyl)-1,2-oxazol-5-yl]propan-1-one] came in with a half-maximal effective concentration (EC50) greater than 30 µM.

Turning to `COc1ccc(-c2coc(CCC(=O)N3CCN(c4cc(C)ccc4C)CC3)n2)cc1` [1-[4-(2,5-dimethylphenyl)piperazin-1-yl]-3-[4-(4-methoxyphenyl)-1,3-oxazol-2-yl]propan-1-one], the EC50 was 2.28 µM.

In turn, `COc1ccc(-c2ccc(CCC(=O)N3CCN(c4cc(C)ccc4C)CC3)[nH]2)cc1` [1-[4-(2,5-dimethylphenyl)piperazin-1-yl]-3-[5-(4-methoxyphenyl)-1H-pyrrol-2-yl]propan-1-one] showed an EC50 greater than 30 µM.

`COc1ccc(-c2noc(CCC(=O)N3CCN(c4ccccc4Cl)CC3)n2)cc1` [1-[4-(2-chlorophenyl)piperazin-1-yl]-3-[3-(4-methoxyphenyl)-1,2,4-oxadiazol-5-yl]propan-1-one] gave an EC50 of 0.805 µM.

Turning to `COc1ccc(-c2noc(CCC(=O)N3CCN(c4ccccc4F)CC3)n2)cc1` [1-[4-(2-fluorophenyl)piperazin-1-yl]-3-[3-(4-methoxyphenyl)-1,2,4-oxadiazol-5-yl]propan-1-one], the half-maximal effective concentration (EC50) under setting [1] was 0.655 µM.

On to `COc1ccc(-c2noc(CCC(=O)N3CCN(c4cccc(Br)c4)CC3)n2)cc1` [1-[4-(3-bromophenyl)-1-piperazinyl]-3-[3-(4-methoxyphenyl)-1,2,4-oxadiazol-5-yl]-1-propanone], for which the EC50 is greater than 30 µM.

Compound `COc1ccc(-c2noc(CCC(=O)N3CCN(c4cccc(F)c4)CC3)n2)cc1` [1-[4-(3-fluorophenyl)piperazin-1-yl]-3-[3-(4-methoxyphenyl)-1,2,4-oxadiazol-5-yl]propan-1-one] showed a 50% effective concentration (EC50) greater than 30 µM.

Compound `COc1ccc(-c2noc(CCC(=O)N3CCN(c4ccc(Br)cc4)CC3)n2)cc1` [1-[4-(4-bromophenyl)piperazin-1-yl]-3-[3-(4-methoxyphenyl)-1,2,4-oxadiazol-5-yl]propan-1-one] came in with a concentration for a half-maximal effect (EC50) greater than 30 µM.

Under setting [1], `COc1ccc(-c2noc(CCC(=O)N3CCN(c4cccc(C(F)(F)F)c4)CC3)n2)cc1` [1-{3-[3-(4-methoxyphenyl)-1,2,4-oxadiazol-5-yl]propanoyl}-4-[3-(trifluoromethyl)phenyl]piperazine] yielded a concentration for a half-maximal effect (EC50) of 1.92 µM.

For `Cc1ccc(C)c(N2CCN(C(=O)CCc3nc(-c4ccccc4Br)no3)CC2)c1` [3-[3-(2-bromophenyl)-1,2,4-oxadiazol-5-yl]-1-[4-(2,5-dimethylphenyl)-1-piperazinyl]-1-propanone], under setting [1], the midpoint of the response, the EC50, lay at 2.34 µM.

`Cc1ccc(C)c(N2CCN(C(=O)CCc3nc(-c4ccccc4Cl)no3)CC2)c1` [3-[3-(2-chlorophenyl)-1,2,4-oxadiazol-5-yl]-1-[4-(2,5-dimethylphenyl)-1-piperazinyl]-1-propanone] showed a concentration for a half-maximal effect (EC50) greater than 30 µM.

With `COc1ccc(-c2noc(CCC(=O)N3CCN(c4ccccc4)CC3)n2)cc1` [3-[3-(4-methoxyphenyl)-1,2,4-oxadiazol-5-yl]-1-(4-phenylpiperazin-1-yl)propan-1-one], the EC50 is greater than 30 µM.

In the case of `COc1ccc(-c2noc(CCC(=O)N3CCN(c4ccccc4OC)CC3)n2)cc1` [3-[3-(4-methoxyphenyl)-1,2,4-oxadiazol-5-yl]-1-[4-(2-methoxyphenyl)-1-piperazinyl]-1-propanone], the 50% effective concentration (EC50) was greater than 30 µM.

On to `COc1ccc(-c2noc(CCC(=O)N3CCN(c4ccc(OC)cc4)CC3)n2)cc1` [3-[3-(4-methoxyphenyl)-1,2,4-oxadiazol-5-yl]-1-[4-(4-methoxyphenyl)piperazin-1-yl]propan-1-one], for which the EC50 under setting [1] is 0.45 µM.

Under setting [1], `COc1ccc(-c2noc(CCC(=O)N3CCN(c4ccc(C)cc4)CC3)n2)cc1` [3-[3-(4-methoxyphenyl)-1,2,4-oxadiazol-5-yl]-1-[4-(4-methylphenyl)piperazin-1-yl]propan-1-one] registered a half-maximal effective concentration (EC50) of 0.566 µM.

For `COc1ccc(-c2noc(CCC(=O)N3CCN(c4ccc(C(F)(F)F)cc4)CC3)n2)cc1` [3-[3-(4-methoxyphenyl)-1,2,4-oxadiazol-5-yl]-1-[4-[4-(trifluoromethyl)phenyl]piperazin-1-yl]propan-1-one], the EC50 is greater than 30 µM.

`COc1ccc(-c2noc(CCC(=O)N3CCN(c4cccc(OC)c4)CC3)n2)cc1` [KUC103349N] had a 50% effective concentration (EC50) under setting [1] of 12.1 µM.

`COc1ccc(-c2noc(CCCC(=O)N3CCN(c4cc(C)ccc4C)CC3)n2)cc1` [KUC103353N] had an EC50 of 6.21 µM.

For `Cc1ccc(C)c(N2CCN(C(=O)CCc3nc(-c4ccc(F)cc4)no3)CC2)c1` [KUC103364N], under setting [1], the EC50 was 0.36 µM.

`Cc1ccc(C)c(N2CCN(C(=O)CCc3nc(-c4cccc(F)c4)no3)CC2)c1` [KUC103366N]: the concentration for a half-maximal effect (EC50) is greater than 30 µM.

As for `Cc1ccc(C)c(N2CCN(C(=O)CCc3nc(-c4cccc(Br)c4)no3)CC2)c1` [KUC103367N], the EC50 under setting [1] stood at 2.14 µM.

`COc1ccc(-c2noc(CCC(=O)N3CCN(c4ccccc4Br)CC3)n2)cc1` [KUC103370N] displayed an EC50 of 2.31 µM.

For the compound `Cc1ccc(C)c(N2CCN(C(=O)CCc3nc(-c4cccc(C(F)(F)F)c4)no3)CC2)c1` [KUC103380N], the EC50 was greater than 30 µM.

Compound `COc1ccc(-c2noc(CCC(=O)N3CCN(c4ccc(F)cc4)CC3)n2)cc1` [KUC103398N] yielded a half-maximal effective concentration (EC50) greater than 30 µM.

On to `Cc1ccc(C)c(N2CCN(C(=O)CCc3nc(-c4ccccc4F)no3)CC2)c1` [KUC103401N], for which the concentration for a half-maximal effect (EC50) was greater than 30 µM.

Take `Cc1ccc(C)c(N2CCN(C(=O)CCc3nc(-c4ccc(N(C)C)cc4)no3)CC2)c1` [KUC103409N]: the concentration for a half-maximal effect (EC50) under setting [1] was 1.19 µM.

For the compound `COc1ccc(-c2noc(CCC(=O)N3CCC(c4cc(C)ccc4C)CC3)n2)cc1` [KUC103432N], the EC50 came out at 1.42 µM.

On to `COc1ccc(-c2ccc(CCC(=O)N3CCN(c4cc(C)ccc4C)CC3)o2)cc1` [KUC103447N], for which the concentration for a half-maximal effect (EC50) is greater than 30 µM.

In the case of `Cc1ccc(C)c(N2CCN(C(=O)CCc3nc(-c4ccccc4)no3)CC2)c1` [UNM-0000306070], the EC50 stood at 4 µM.

Under setting [1], `COc1ccccc1-c1noc(CCC(=O)N2CCN(c3cc(C)ccc3C)CC2)n1` [UNM-0000306071] yielded a 50% effective concentration (EC50) of 1.54 µM.

As to `Cc1ccc(C)c(N2CCN(C(=O)CCc3nc(-c4ccc(Br)cc4)no3)CC2)c1` [UNM-0000306072], under setting [1], the EC50 amounted to 1.62 µM.

In turn, `COc1ccc(-c2noc(CCC(=O)N3CCN(c4ccccc4C(F)(F)F)CC3)n2)cc1` [UNM-0000306082] came in with a concentration giving a half-maximal response (EC50) under setting [1] of 1.98 µM.

`Cc1ccc(C)c(N2CCN(C(=O)CCc3nc(-c4ccc(Cl)cc4)no3)CC2)c1` [UNM-0000306083] showed a concentration for a half-maximal effect (EC50) of 1.72 µM.

`Cc1ccc(C)c(N2CCN(C(=O)CCc3nc(-c4cccc(Cl)c4)no3)CC2)c1` [UNM-0000306086] gave an EC50 of 2.18 µM.

The compound `COc1ccc(-c2noc(CCC(=O)N3CCN(c4ccc(Cl)cc4)CC3)n2)cc1` [UNM-0000306121] displayed an EC50 greater than 30 µM.

Take `COc1ccc(-c2noc(CCC(=O)N3CCN(c4cccc(C)c4)CC3)n2)cc1` [UNM-0000306125]: the EC50 was greater than 30 µM.

As for `COc1ccc(-c2cccc(CCC(=O)N3CCN(c4cc(C)ccc4C)CC3)c2)cc1` [UNM-0000306127], a half-maximal effect under setting [1] (EC50) was put at 3.67 µM.

Compound `COc1ccc(-c2cc(CCC(=O)N3CCN(c4cc(C)ccc4C)CC3)[nH]n2)cc1` [UNM-0000306150] yielded an EC50 greater than 30 µM.
